Assay results published in patent US9580444B2, “Polycyclic pyrazolinone derivative and herbicide comprising same as effective component thereof” (priority 2013, dated 2017).

How the values were obtained:
Type in all cases: in vivo
[1] = tested on: Eleocharis acicularis (needle spikerush); assay: Test Example-1: herbicidal effect by a treatment before weeds are generated under submerged conditions; conditions: 500 g a.i/ha, pre-emergence treatment, about 15 days after treatment, score 0-5
Method in brief: (§1)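 Treatment is made before weed emergence: seeds sit in puddled, submerged paddy soil and receive the diluted wettable powder or emulsifiable concentrate into the water at a fixed dosage. Rating on a 0–5 scale follows after around 15 days.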

[2] = tested on: Cyperus difformis (smallflower umbrella plant); assay: as above; conditions: 500 g a.i/ha, pre-emergence treatment, about 15 days after treatment, score 0-5
Method in brief: as §1

[3] = tested on: Echinochloa oryzicola (barnyard grass); assay: as above; conditions: 500 g a.i/ha, pre-emergence treatment, about 15 days after treatment, score 0-5
Method in brief: as §1

[4] = tested on: Monochoria vaginalis (monochoria); assay: as above; conditions: 500 g a.i/ha, pre-emergence treatment, about 15 days after treatment, score 0-5
Method in brief: as §1

[5] = tested on: Scirpus juncoides (bulrush); assay: as above; conditions: 500 g a.i/ha, pre-emergence treatment, about 15 days after treatment, score 0-5
Method in brief: as §1

[6] = tested on: other annual broad leaf weeds (Lindernia procumbens, Rotala indica, Elatine triandra); assay: as above; conditions: 500 g a.i/ha, pre-emergence treatment, about 15 days after treatment, score 0-5
Method in brief: as §1

[7] = tested on: Chenopodium album (common lambsquarters); assay: Test Example-4: herbicidal effect by a foliage treatment after weeds are generated under upland field conditions; conditions: 500 g a.i/ha, foliage treatment after emergence, about 14 days after treatment, score 0-5
Method in brief: (§2)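 Sown seeds, under about 0.5 cm of soil cover in upland soil, grew for 14 days before compound application. A wettable powder or emulsifiable concentrate, diluted to a predetermined dosage, was sprayed over foliage in 4000 L/ha water, with scoring on a 0–5 scale after roughly 14 days.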

[8] = tested on: Amaranthus viridis (green amaranthus); assay: as above; conditions: 500 g a.i/ha, foliage treatment after emergence, about 14 days after treatment, score 0-5
Method in brief: as §2

[9] = tested on: Abutilon theophrasti (velvetleaf); assay: as above; conditions: 500 g a.i/ha, foliage treatment after emergence, about 14 days after treatment, score 0-5
Method in brief: as §2

[10] = tested on: corn; assay: Test Example-4: phytotoxicity by a foliage treatment after weeds are generated under upland field conditions; conditions: 500 g a.i/ha, foliage treatment after emergence, about 14 days after treatment, score 0-5
Method in brief: as §2

| Compound | Herbicidal effect Eleocharis acicularis [1] | Herbicidal effect Cyperus difformis [2] | Herbicidal effect Echinochloa oryzicola [3] | Herbicidal effect Monochoria vaginalis [4] | Herbicidal effect Scirpus juncoides [5] | Herbicidal effect Broadleaf weed [6] | Herbicidal effect Chenopodium album [7] | Herbicidal effect Amaranthus viridis [8] | Herbicidal effect Abutilon theophrast [9] | Phytotoxicity Corn [10] |
| --- | --- | --- | --- | --- | --- | --- | --- | --- | --- | --- |
| COCOc1cc(-c2c(Cl)n3n(c2=O)CCCC3)c(F)cc1F [Example 1-90] | 5 (Herbicidal effect/phytotoxicity was 90% or greater) | 5 (Herbicidal effect/phytotoxicity was 90% or greater) | 5 (Herbicidal effect/phytotoxicity was 90% or greater) | 5 (Herbicidal effect/phytotoxicity was 90% or greater) | 5 (Herbicidal effect/phytotoxicity was 90% or greater) | 5 (Herbicidal effect/phytotoxicity was 90% or greater) | 5 (Herbicidal effect/phytotoxicity was 90% or greater) | 5 (Herbicidal effect/phytotoxicity was 90% or greater) | 5 (Herbicidal effect/phytotoxicity was 90% or greater) | 3 (Herbicidal effect/phytotoxicity was 50% to 70%) |
| C=CCOc1cc(-c2c(Cl)n3n(c2=O)CCCC3)c(F)cc1Cl [Example 1-201] | 5 (Herbicidal effect/phytotoxicity was 90% or greater) | 5 (Herbicidal effect/phytotoxicity was 90% or greater) | 5 (Herbicidal effect/phytotoxicity was 90% or greater) | 5 (Herbicidal effect/phytotoxicity was 90% or greater) | 5 (Herbicidal effect/phytotoxicity was 90% or greater) | 5 (Herbicidal effect/phytotoxicity was 90% or greater) | 5 (Herbicidal effect/phytotoxicity was 90% or greater) | 5 (Herbicidal effect/phytotoxicity was 90% or greater) | 5 (Herbicidal effect/phytotoxicity was 90% or greater) | 2 (Herbicidal effect/phytotoxicity was 30% to 50%) |
| O=c1c(-c2ccc(Cl)cc2F)c(Cl)n2n1CCCC2 [Example 1-125] | 5 (Herbicidal effect/phytotoxicity was 90% or greater) | 5 (Herbicidal effect/phytotoxicity was 90% or greater) | 5 (Herbicidal effect/phytotoxicity was 90% or greater) | 5 (Herbicidal effect/phytotoxicity was 90% or greater) | 5 (Herbicidal effect/phytotoxicity was 90% or greater) | 5 (Herbicidal effect/phytotoxicity was 90% or greater) | 5 (Herbicidal effect/phytotoxicity was 90% or greater) | 5 (Herbicidal effect/phytotoxicity was 90% or greater) | 5 (Herbicidal effect/phytotoxicity was 90% or greater) | 1 (Herbicidal effect/phytotoxicity was 10% to 30%) |
| CC=CCOc1cc(-c2c(Cl)n3n(c2=O)CCCC3)c(F)cc1Cl [Example 1-209] | 5 (Herbicidal effect/phytotoxicity was 90% or greater) | 5 (Herbicidal effect/phytotoxicity was 90% or greater) | 5 (Herbicidal effect/phytotoxicity was 90% or greater) | 5 (Herbicidal effect/phytotoxicity was 90% or greater) | 5 (Herbicidal effect/phytotoxicity was 90% or greater) | 5 (Herbicidal effect/phytotoxicity was 90% or greater) | 5 (Herbicidal effect/phytotoxicity was 90% or greater) | 5 (Herbicidal effect/phytotoxicity was 90% or greater) | 5 (Herbicidal effect/phytotoxicity was 90% or greater) | 2 (Herbicidal effect/phytotoxicity was 30% to 50%) |
| O=c1c(-c2ccc(Cl)c(OC3CCCC3)c2)c(Cl)n2n1CCCC2 [Example 1-52] | 5 (Herbicidal effect/phytotoxicity was 90% or greater) | 5 (Herbicidal effect/phytotoxicity was 90% or greater) | 5 (Herbicidal effect/phytotoxicity was 90% or greater) | 5 (Herbicidal effect/phytotoxicity was 90% or greater) | 5 (Herbicidal effect/phytotoxicity was 90% or greater) | 5 (Herbicidal effect/phytotoxicity was 90% or greater) | 5 (Herbicidal effect/phytotoxicity was 90% or greater) | 5 (Herbicidal effect/phytotoxicity was 90% or greater) | 5 (Herbicidal effect/phytotoxicity was 90% or greater) | 0 (Herbicidal effect/phytotoxicity was 0% to 10%) |
| C#CC(C)Oc1cc(-c2c(Cl)n3n(c2=O)CCCC3)c(F)cc1F (centres unmarked) [Example 1-114] | 5 (Herbicidal effect/phytotoxicity was 90% or greater) | 5 (Herbicidal effect/phytotoxicity was 90% or greater) | 5 (Herbicidal effect/phytotoxicity was 90% or greater) | 5 (Herbicidal effect/phytotoxicity was 90% or greater) | 5 (Herbicidal effect/phytotoxicity was 90% or greater) | 5 (Herbicidal effect/phytotoxicity was 90% or greater) | 5 (Herbicidal effect/phytotoxicity was 90% or greater) | 5 (Herbicidal effect/phytotoxicity was 90% or greater) | 5 (Herbicidal effect/phytotoxicity was 90% or greater) | 3 (Herbicidal effect/phytotoxicity was 50% to 70%) |
| O=c1c(-c2cc(OC3CCCC3)c(Cl)cc2Cl)c(Cl)n2n1CCCC2 [Example 1-307] | 5 (Herbicidal effect/phytotoxicity was 90% or greater) | 5 (Herbicidal effect/phytotoxicity was 90% or greater) | 5 (Herbicidal effect/phytotoxicity was 90% or greater) | 5 (Herbicidal effect/phytotoxicity was 90% or greater) | 5 (Herbicidal effect/phytotoxicity was 90% or greater) | 5 (Herbicidal effect/phytotoxicity was 90% or greater) | 5 (Herbicidal effect/phytotoxicity was 90% or greater) | 5 (Herbicidal effect/phytotoxicity was 90% or greater) | 5 (Herbicidal effect/phytotoxicity was 90% or greater) | 0 (Herbicidal effect/phytotoxicity was 0% to 10%) |
| O=c1c(-c2cc(OCC=Cc3ccc(F)cc3)c(Cl)cc2F)c(Cl)n2n1CCCC2 [Example 1-226] | 5 (Herbicidal effect/phytotoxicity was 90% or greater) | 5 (Herbicidal effect/phytotoxicity was 90% or greater) | 5 (Herbicidal effect/phytotoxicity was 90% or greater) | 5 (Herbicidal effect/phytotoxicity was 90% or greater) | 5 (Herbicidal effect/phytotoxicity was 90% or greater) | 5 (Herbicidal effect/phytotoxicity was 90% or greater) | 5 (Herbicidal effect/phytotoxicity was 90% or greater) | 5 (Herbicidal effect/phytotoxicity was 90% or greater) | 5 (Herbicidal effect/phytotoxicity was 90% or greater) | 3 (Herbicidal effect/phytotoxicity was 50% to 70%) |
